{"source": "paper PMC12536539", "about": "“Detumescence Analgesic Plaster mitigates knee osteoarthritis via active ingredients targeting mitochondrial complex 1/AMPK/MYL3-regulated cartilage homeostasis” (Chinese Medicine, 2025)", "target": "T1, NDUFA6", "T1 construct": "SPR protein; species is a guess, rat possible", "assay": "SPR, Biacore 8K, […] Langmuir kinetic fit", "assay_type": "binding", "data": [{"compound": "O=C(/C=C/c1ccc(O)c(O)c1)O[C@@H]1C[C@](OC(=O)/C=C/c2ccc(O)c(O)c2)(C(=O)O)C[C@@H](O)[C@H]1O", "note": "[1,5-dicaffeoylquinic acid]", "values": [{"measurement": "Kd", "value": 735, "unit": "nM"}]}]}
